The text below walks through data of patent US6265423A, “Aromatic polycyclic retinoid-type derivatives, method for preparing same, and use thereof for making pharmaceutical and cosmetic compositions” (priority 1996, dated 2001).

As usually defined, the inhibition is how much of the control response was suppressed. Low readings indicate a response near the control, high ones a response far below the control.

The test system of experiment [1] is human mammary tumoral lineage T-47D. The experiment is described as follows: Clonogenic test (soft agar), growth of cellular colonies. The note with it: T-47D; for mean number of cellular colonies in relation to control / activity at 0.01 µM / activity at 0.001 µM / activity at 0.0001 µM / activity at 0.1 µM: 21 days, control = 100%; for activity at 0.01 µM / activity at 0.001 µM / activity at 0.0001 µM / activity at 0.1 µM: Homo sapiens, T47D, 504 h, read-out: mean number of cellular colonies in relation to control; for activity at 0.1 µM: 10^-7 M; for effect on growth of cellular colonies (in words): soft agar. Type of experiment: cell-based. From the text:
The human tumour stem cells are the clonogenic cells which are the origin of the neoplasic cells which constitute a given tumour. These tumour stem cells are responsible for the recidivism process observable after surgical resection of the primary tumours and are also responsible for the formation of metastases. […] At the level of a tumour or of a tumoral cellular lineage, these clonogenic stem cells distinguish themselves from other clonogenic cells of the tumour or of the neoplasic cellular lineage being considered, by the fact that they preserve their ability to proliferate in the absence of any solid support.
This technique is suitable for the culturing in vitro of most of the tumours and tumoral cellular lineages of various histological types. In the context of this test, the neoplastic cells are cultured on a semi-solid culture medium "soft agar" made up of a mixture of agar and agarose. On this selective support, only tumoral stem cells survive and proliferate. […] The morphological characteristics and the growth of the cellular colonies are also a function of the histological type of the tumours being considered.
These culture conditions are also called "anchorage-independent" conditions.
The base medium "MEM 25 MM HEPES" (Minimum Essential Medium, Life Technologies, Belgium) contains Eagle salts but no L-glutamine. This medium is well suited to the growth of a range of varied diploid cells or primary mammal cells. To this medium is then added:
The tumoral cells are maintained in culture in 25 cm^2 falcon dishes (Life Technologies, Belgium). They are then trypsinised and individualised. Their rate of viability is determined by coloration with trypan blue (Sigma, Belgium). It must be greater than 90%. In the case where this condition is kept to, a cellular suspension at the desired concentration is prepared in a solution of agar at 0. 3%. The cells are then seeded between two layers of agar (Sigma, Belgium) and in 35 mm Petri dishes (Life Technologies, Belgium). The base layer is made up of a 0.5% solution of agar and the top layer is made up of a 0.3% solution of agar. The cupules are then positioned and held in an incubator at 37° C. and 5% of CO2. […] After treatment, the cupules are kept in the incubator for 21 days. It is advisable to examine, during the course of the experiment, the appearance and the increase of the cellular colonies. If after 10 days, no colony appears or is developing, the experiment must be repeated. In the contrary case, on the 21st day, 100 μl of an MTT solution (3-(4,5-dimethylthiazol-2-yl)-2,5 diphenyl tetrazolium bromide; Sigma, Belgium) dissolved in the RPMI culture medium (Roswell park Memorial Institute, Life Technologies, Belgium), at the concentration of 1 mg/ml are deposited on the top layer of the group of cupules. The cells are kept in contact with this solution for a minimum of 3 hours at 37° C.
Using an inverted microscope at low magnification, the number of clones whose surface area is greater thar. 100 μm^2 is determined for the group of cupules representing all the different experimental conditions. Then, for each of these experimental conditions, the mean number of cellular colonies±the standard error on the mean (ESM) is calculated.
The mean number of cellular colonies determined for each experimental condition is expressed as a percentage in relation to the control condition made equal to 100%.

Experiment [2] relates to ZR-75-1 human mammary cancer cells. The experiment is described as follows: MTT test, proliferation of ZR-75-1. The class given is cell-based. To be noted: for activity at 100 µM / activity at 1 µM / activity at 0.01 µM: Homo sapiens, 72 h, control = 100%, read-out: level of proliferation; for activity at 100 µM: ZR-75-1, 10^-4 M; for activity at 1 µM: ZR-75-1, 10^-6 M; for activity at 0.01 µM: ZR-75-1, 10^-8 M. Here is the method: (§1) The cells that were cultured came from the ATCC (American Type Culture Collection).
(§2) The cellular lines are kept in culture in a monolayer at 37° C. in closed culture dishes (Nunc. Gibco BRL, Life Technologies, Belgium) containing the minimum essential medium (MEM, Gibco) supplemented with 5% of Foetal Calf Serum, (FCS, Gibco), 0.6 mg/ml of glutamine (Gibco) and a mixture of 200 IU/mi of penicillin (Gibco), 200 μg/ml of streptomycin (Gibco) and 0.1 mg/ml of gentamycin (Gibco). The foetal calf serum is decomplemented for 1 hour at 56° C.
(§3) This test is based on the mitochondrial reduction by living metabolically active cells of the MTT (3-(4,5-dimethylthiazol-2-yl)-2,5-diphenyltetrazolium bromide) of yellowish colour into a blue coloured product, formazan. The quantity of formazan obtained is directly proportional to the number of living cells. After incubation of the cells for 24 hours in microplates with 96 flat bottomed wells, the culture medium is replaced by 100 μl of fresh culture medium containing the drug to be tested.
(§4) The microplates are then incubated for 3 hours at 37° C. and centrifuged for 10 minutes at 400 g (GPR centrifuge, Beckman). The MTT solution is replaced by 100 μl of dimethylsulphoxide (Merck). The microplates are agitated (Vari-Shaker, Dynatech) for 10 minutes.
(§5) In the microplates, the control cells like the treated cells were incubated in a medium without the compounds to be tested for 24 hours. The control cells are incubated in a medium without a drug throughout the whole experiment, while the treated cells are incubated in different media. These media contain the molecule to be tested at various concentrations: 10^-8 M, 10^-6 M and 10^-4 M. All the tests are carried out in 6 duplicates.
(§6) The statistical comparisons are carried out according to the Fisher Test:
(§7) The mean optical density measured for each experimental condition is expressed as a percentage in relation to the laid down control condition being equal to 100%.

Experiment [3] has as its system A549 human pulmonary cancer cells. The experiment is described as follows: MTT test, proliferation of A549. The class given is cell-based. To be noted: Homo sapiens, 72 h, control = 100%, read-out: level of proliferation; for activity at 100 µM: A549, 10^-4 M; for activity at 1 µM: A549, 10^-6 M; for activity at 0.01 µM: A549, 10^-8 M. (In general: Formazan colour is commonly taken as a measure of viable cells.)

In experiment [4] the test system is A-427 human pulmonary cancer cells. In words: MTT test, proliferation of A-427. To be noted: Homo sapiens, A-427, 72 h, read-out: level of proliferation.
The subject of experiment [5] is T-47D human mammary cancer cells. The experiment is described as follows: MTT test, proliferation of T-47D. The class given is cell-based. The note with it: for activity at 100 µM / activity at 1 µM / activity at 0.01 µM: Homo sapiens, T47D, T-47D, 72 h, control = 100%, read-out: level of proliferation; for activity at 100 µM: 10^-4 M; for activity at 1 µM: 10^-6 M; for activity at 0.01 µM: 10^-8 M. The procedure:
as §1, §2, §3, §4, §5, §6, §7

In experiment [6] the test system is ERE-βGlob-Luc, MELN lineage (MCF-7). The experiment is described as follows: Anti-oestrogenic effect, MELN lineage activated by estradiol. Type of experiment: cell-based, human. To be noted: Homo sapiens, MCF7; 10^-6 M, cells activated by 10^-9 M estradiol. From the text: Certain properties of the retinoids have been determined using more developed cellular models. These models consist of cellular lineages transfected in a stable fashion by recombinant plasmids which place the expression of the gene of the luciferase under the control of different nuclear response elements. […] The tests carried out in duplicate are described below for each of these models.
MCF-7 cells express RARα,γ and RXRα. The transfection of MCF-7 cells by an oestrogen-dependent gene (ERE-βGlob-Luc) has permitted the establishment of the MELN cellular lineage, used to determine the anti-oestrogenic activity of the retinoids. These cells contain the gene of the luciferase under the transcriptional control of the promoter of the βGlobine and of the response element ERE isolated from the gene of chicken vitelogenine A2. The experiments are carried out with MELN cells activated by 10^-9 M estradiol. The level of base activity of the MELN cells is obtained with the anti-oestrogen 1 μM 4-OH-tamoxifen (hydroxytamoxifen).
The effect of the products tested on the cells activated by 10^-9 M estradiol is expressed as a percentage, the level of base activity being deducted.

Regarding `Cc1cc2c(cc1/C=C1\CCc3cc(C(=O)O)ccc31)C(C)(C)CCC2(C)C` [CB40341], the “mean number of cellular colonies in relation to control” value in experiment [1] (10^-8 M, 0.01 µM) is 65.6 ± 9.5%; in experiment [1] (10^-9 M, 0.001 µM), 90.8 ± 0.8%; in experiment [1] (10^-10 M, 0.0001 µM), 99.1 ± 9.7%.

For `C/C(=C/c1cc2c(cc1C)C(C)(C)CCC2(C)C)c1ccc(-c2nnn[nH]2)cc1` [CB61692], the activity at 100 µM in experiment [2] is 0%; in experiment [3], 0%; in experiment [4], 0.6%; in experiment [5], 0%. Moreover, the activity at 1 µM in experiment [2] turned out to be 89.5%; in experiment [3] it was 98.2%; in experiment [4] it was 107%; in experiment [5] it was 93.8%. For the same compound, the activity at 0.01 µM in experiment [2] turned out to be 93.2%; in experiment [3] it was 106%; in experiment [4], 105%; in experiment [5], 106%; in experiment [1] (10^-8 M), 55.7 ± 2.6%. Besides, the activity at 0.001 µM in experiment [1] (10^-9 M) came to 41.5 ± 5.7%. Further, in experiment [1] (10^-10 M), the activity at 0.0001 µM amounted to 90.3 ± 4.7%.

For `CC1=C(/C=C/C(C)=C/C=C/C(C)=C/C(=O)Nc2ccc(O)cc2)C(C)(C)CCC1` [CB05764, reference compound], in experiment [2], the activity at 100 µM is 0.6%, the activity at 1 µM was determined as 81.9% and the activity at 0.01 µM amounted to 97.3%. For the same compound, in experiment [5], the activity at 100 µM was 0%, the activity at 1 µM was 66.4% and the activity at 0.01 µM turned out to be 82.5%. For the same compound, in experiment [1], the activity at 0.1 µM was found to be 18.8% and the “effect on growth of cellular colonies (in words)” value was “strongly active at concentration 10^-7 M loses its significant inhibiting activity beyond the concentration of 10^-9 M”. Besides, the activity at 0.01 µM in experiment [1] (10^-8 M) was determined as 33.6%. Moreover, the activity at 0.001 µM in experiment [1] (10^-9 M) amounted to 83.3%. For the same compound, the activity at 0.0001 µM in experiment [1] (10^-10 M) was determined as 80.3%.

With `C/C(=C/c1ccc2c(c1)C(C)(C)CCC2(C)C)c1cc(C(=O)O)no1` [CB73069], the inhibition in experiment [6] was 17 to 21%.

With `CC/C(=C(\c1ccccc1)c1ccc(OCCN(C)C)cc1)c1ccccc1` [CB58707, tamoxifen, reference compound], in experiment [1], the activity at 0.1 µM amounted to 31.3% and the “effect on growth of cellular colonies (in words)” value is “significant inhibition in the growth of these colonies but its activity is not dose dependent”. In experiment [1] (10^-8 M), the activity at 0.01 µM stood at 46.9%. Moreover, the activity at 0.001 µM in experiment [1] (10^-9 M) is 35.5%. The activity at 0.0001 µM in experiment [1] (10^-10 M) was determined as 56.7%.

Turning to `C/C(=C\c1ccc2c(c1)C(C)(C)CCS2)c1ccc(C(=O)O)cc1` [CB12994], the activity at 100 µM in experiment [2] stood at 31.8%; in experiment [3] it was 53.2%; in experiment [4], 4.4%; in experiment [5] it was 1.8%. In addition, the activity at 1 µM in experiment [2] worked out at 126%; in experiment [3] it was 89%; in experiment [4] it was 93.6%; in experiment [5] it was 51.8%. Also, the activity at 0.01 µM in experiment [2] was found to be 121%; in experiment [3] it was 92.1%; in experiment [4] it was 107%; in experiment [5] it was 67.6%.

On to `Cc1cc2c(cc1/C=C1/CCc3cc(-c4nnn[nH]4)ccc31)C(C)(C)CCC2(C)C` [CB02981], for which the “mean number of cellular colonies in relation to control” value turned out to be 48.8 ± 5.3% in experiment [1] (10^-8 M, 0.01 µM); 67.6 ± 8.9% in experiment [1] (10^-9 M, 0.001 µM); 80.1 ± 13.2% in experiment [1] (10^-10 M, 0.0001 µM).

For the compound `C/C(=C\c1ccc2c(c1)C(C)(C)CCS2(=O)=O)c1ccc(-c2nnn[nH]2)cc1` [CB15068, (E) 5-[4-[1-(3',4'-dihydro-4'4'-dimethyl-1',1'-dioxide-2'H-1'-benzothiopyran-6'-yl)-2-propenyl]phenyl]-1H-tetrazole], the activity at 100 µM in experiment [2] came to 59.3%; in experiment [3], 81.8%; in experiment [4], 24.3%; in experiment [5] it was 32.2%. In addition, the activity at 1 µM was determined as 99.9% in experiment [2], 97.3% in experiment [3], 98% in experiment [4] and 87.8% in experiment [5]. In addition, the activity at 0.01 µM in experiment [2] turned out to be 99.2%; in experiment [3], 92.7%; in experiment [4], 88.5%; in experiment [5], 101%. Also, in experiment [2] (MTT test), the “effect on cellular increase, ZR-75-1 (in words)” value was “do not influence the cellular increase of the lineages under consideration”. Also, the “effect on cellular increase, T-47D (in words)” value in experiment [5] (MTT test) was “do not influence the cellular increase of the lineages under consideration”.
